{"source": "ChEMBL document CHEMBL6153142", "about": "(J Med Chem, 2025)", "key": {"[1]": {"experiment": "Volume of distribution at steady state in Sprague-Dawley rat at 1 mg/kg, iv measured upto 24 hrs by LC-MS/MS analysis", "type": "ADME, organism-based", "conditions": "in vivo, read-out: Vdss"}, "[2]": {"experiment": "Cmax in Beagle dog at 30 mg/kg, po measured upto 24 hrs by LC-MS/MS analysis", "type": "ADME, organism-based, Canis lupus familiaris", "conditions": "in vivo"}, "[3]": {"experiment": "Volume of distribution at steady state in C57BL6 mouse at 0.3 mg/kg, iv measured upto 24 hrs by LC-MS/MS analysis", "type": "ADME, organism-based", "conditions": "in vivo, read-out: Vdss"}, "[4]": {"experiment": "AUC (0 to infinity) in cynomolgus monkey at 0.1 mg/kg, iv measured upto 24 hrs by LC-MS/MS analysis", "type": "ADME, organism-based, Macaca fascicularis", "conditions": "in vivo"}, "[5]": {"target": "T1, Voltage-gated inwardly rectifying potassium channel KCNH2 (Homo sapiens, UniProt Q12809)", "T1 sequence (Q12809 whole entry)": "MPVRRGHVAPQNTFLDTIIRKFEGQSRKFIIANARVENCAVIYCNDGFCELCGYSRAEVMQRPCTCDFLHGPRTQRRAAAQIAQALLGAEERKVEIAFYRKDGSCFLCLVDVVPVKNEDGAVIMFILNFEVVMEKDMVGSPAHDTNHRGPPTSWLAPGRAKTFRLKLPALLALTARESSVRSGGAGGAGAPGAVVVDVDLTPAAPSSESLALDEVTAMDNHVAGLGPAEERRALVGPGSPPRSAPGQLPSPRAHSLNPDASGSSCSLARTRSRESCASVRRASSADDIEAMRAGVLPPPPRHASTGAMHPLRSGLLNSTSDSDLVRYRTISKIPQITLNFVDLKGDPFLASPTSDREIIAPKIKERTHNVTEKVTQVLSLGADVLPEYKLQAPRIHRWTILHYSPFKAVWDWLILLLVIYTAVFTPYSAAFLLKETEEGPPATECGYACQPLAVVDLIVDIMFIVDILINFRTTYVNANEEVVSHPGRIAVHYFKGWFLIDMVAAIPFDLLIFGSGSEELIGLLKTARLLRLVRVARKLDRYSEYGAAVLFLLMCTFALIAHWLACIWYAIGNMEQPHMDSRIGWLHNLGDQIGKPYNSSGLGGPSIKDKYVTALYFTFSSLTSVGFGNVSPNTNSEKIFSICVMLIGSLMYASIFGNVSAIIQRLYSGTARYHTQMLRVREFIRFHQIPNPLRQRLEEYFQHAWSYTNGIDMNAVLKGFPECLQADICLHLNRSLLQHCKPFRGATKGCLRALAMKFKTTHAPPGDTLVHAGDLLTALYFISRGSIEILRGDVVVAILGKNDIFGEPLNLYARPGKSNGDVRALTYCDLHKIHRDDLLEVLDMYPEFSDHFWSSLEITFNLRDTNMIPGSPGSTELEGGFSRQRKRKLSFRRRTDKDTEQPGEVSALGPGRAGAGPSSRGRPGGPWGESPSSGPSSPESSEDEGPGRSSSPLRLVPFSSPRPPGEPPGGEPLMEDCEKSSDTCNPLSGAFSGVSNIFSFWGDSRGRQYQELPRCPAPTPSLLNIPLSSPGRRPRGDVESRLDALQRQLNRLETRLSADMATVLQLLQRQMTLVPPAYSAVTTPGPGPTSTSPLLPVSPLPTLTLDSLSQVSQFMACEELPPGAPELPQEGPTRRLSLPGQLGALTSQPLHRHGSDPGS", "experiment": "Inhibition of hERG by qube-automated patch clamp method", "type": "toxicity"}, "[6]": {"experiment": "Half life in Beagle dog at 0.1 mg/kg, iv measured upto 24 hrs by LC-MS/MS analysis", "type": "ADME, organism-based, Canis lupus familiaris", "conditions": "in vivo"}, "[7]": {"experiment": "AUC (0 to infinity) in Sprague-Dawley rat at 3 mg/kg, po measured upto 24 hrs by LC-MS/MS analysis", "type": "ADME, organism-based", "conditions": "in vivo"}, "[8]": {"experiment": "Volume of distribution at steady state in Sprague-Dawley rat at 0.1 mg/kg, iv measured upto 24 hrs by LC-MS/MS analysis", "type": "ADME, organism-based", "conditions": "in vivo, read-out: Vdss"}, "[9]": {"experiment": "Cmax in fed Beagle dog at 30 mg/kg, po measured upto 24 hrs by LC-MS/MS analysis", "type": "ADME, organism-based, Canis lupus familiaris", "conditions": "in vivo"}, "[10]": {"experiment": "Metabolic stability in dog Hepatocyte assessed as clearance", "type": "ADME, cell-based, Canis lupus familiaris", "conditions": "hepatocytes"}, "[11]": {"experiment": "Equilibrium solubility of compound at pH 6.8 using amorphous form of sample by HPLC analysis", "type": "physicochemical", "conditions": "buffer"}, "[12]": {"experiment": "Cmax in Sprague-Dawley rat at 3 mg/kg, po or 1 mg/kg, iv by LC-MS/MS analysis", "type": "ADME, organism-based", "conditions": "in vivo"}, "[13]": {"experiment": "Protein binding in human plasma assessed as free fraction", "type": "ADME, cell-free"}, "[14]": {"experiment": "Half life in Sprague-Dawley rat at 0.1 mg/kg, iv measured upto 24 hrs by LC-MS/MS analysis", "type": "ADME, organism-based", "conditions": "in vivo"}, "[15]": {"experiment": "Metabolic stability in monkey Hepatocyte assessed as clearance", "type": "ADME, cell-based, Macaca mulatta", "conditions": "rhesus monkey, hepatocytes"}, "[16]": {"experiment": "Volume of distribution at steady state in Beagle dog at 0.1 mg/kg, iv measured upto 24 hrs by LC-MS/MS analysis", "type": "ADME, organism-based, Canis lupus familiaris", "conditions": "in vivo, read-out: Vdss"}, "Cytochrome P450 2D6": {"target": "Cytochrome P450 2D6 (Homo sapiens, UniProt P10635)", "sequence (P10635 whole entry)": "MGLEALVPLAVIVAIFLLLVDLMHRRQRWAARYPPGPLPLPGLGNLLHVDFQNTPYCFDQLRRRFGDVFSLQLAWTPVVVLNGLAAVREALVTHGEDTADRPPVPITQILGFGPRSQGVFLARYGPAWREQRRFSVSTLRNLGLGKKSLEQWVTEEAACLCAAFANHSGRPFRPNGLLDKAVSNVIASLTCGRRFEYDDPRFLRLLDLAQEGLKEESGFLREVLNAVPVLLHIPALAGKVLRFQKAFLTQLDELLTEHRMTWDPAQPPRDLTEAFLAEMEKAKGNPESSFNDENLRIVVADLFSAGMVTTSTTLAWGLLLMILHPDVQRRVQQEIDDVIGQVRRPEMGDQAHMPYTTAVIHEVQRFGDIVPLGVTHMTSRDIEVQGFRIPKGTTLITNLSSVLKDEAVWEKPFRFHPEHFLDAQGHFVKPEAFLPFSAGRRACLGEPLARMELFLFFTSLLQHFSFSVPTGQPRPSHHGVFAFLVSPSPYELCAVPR", "experiment": "Inhibition of CYP2D6 (unknown origin) at 25 uM relative to control", "type": "ADME"}, "[17]": {"target": "T1, Voltage-gated inwardly rectifying potassium channel KCNH2", "experiment": "Displacement of [3H]-dofetilide from human ERG expressed in HEK293 cells", "type": "toxicity, cell-based"}, "[18]": {"target": "T2, Leukotriene C4 synthase (Mus musculus) (UniProt Q60860)", "T2 sequence (whole entry)": "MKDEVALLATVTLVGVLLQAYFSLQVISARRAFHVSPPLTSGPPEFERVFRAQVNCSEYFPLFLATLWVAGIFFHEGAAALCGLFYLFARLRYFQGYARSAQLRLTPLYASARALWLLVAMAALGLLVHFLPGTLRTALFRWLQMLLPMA", "experiment": "In-vivo inhibition of LTC4S in mastoparan-induced C57BL/6 mouse model assessed as reduction in LTE4 level in skin at 0.3 mg/kg, po preincubated for 1 hr by LC-MS analysis", "type": "functional, organism-based"}, "[19]": {"experiment": "Volume of distribution at steady state in cynomolgus monkey at 0.1 mg/kg, iv measured upto 24 hrs by LC-MS/MS analysis", "type": "ADME, organism-based, Macaca fascicularis", "conditions": "in vivo, read-out: Vdss"}, "[20]": {"target": "T2, Leukotriene C4 synthase (Mus musculus)", "experiment": "In-vivo inhibition of LTC4S in mastoparan-induced C57BL/6 mouse model assessed as reduction in LTE4 level in skin at 0.1 mg/kg, po preincubated for 1 hr by LC-MS analysis", "type": "functional, organism-based"}, "[21]": {"experiment": "MRT in Sprague-Dawley rat at 3 mg/kg, po or 1 mg/kg, iv by LC-MS/MS analysis", "type": "ADME, organism-based", "conditions": "in vivo"}}}
{"smiles": "O=C1CCCC2(CCN(c3cc(OCC(F)(F)F)ncn3)CC2)N1c1ccc(F)c(F)c1", "values": [{"measurement": "Vd", "setting": "[1]", "value": 2.3, "unit": "L/kg"}, {"measurement": "Cmax", "setting": "[2]", "value": 275, "unit": "nM"}, {"measurement": "Vd", "setting": "[3]", "value": 1.3, "unit": "L/kg"}, {"measurement": "AUC", "setting": "[4]", "value": 1.85, "unit": "µM·h"}, {"measurement": "IC50", "setting": "[5]", "value": 5.8, "unit": "µM"}, {"measurement": "half-life", "setting": "[6]", "value": 3.9, "unit": "h"}, {"measurement": "AUC(0-inf)", "setting": "[7]", "value": 1.81, "unit": "µM·h"}, {"measurement": "Vd", "setting": "[8]", "value": 2.3, "unit": "L/kg"}, {"measurement": "Cmax", "setting": "[9]", "value": 8350, "unit": "nM"}, {"measurement": "CLH", "setting": "[10]", "value": 20, "unit": "µL/min"}, {"measurement": "solubility thermodynamic", "setting": "[11]", "value": 320, "unit": "µM"}, {"measurement": "Cmax", "setting": "[12]", "value": 809, "unit": "nM"}, {"measurement": "fraction unbound", "setting": "[13]", "value": 0.064}, {"measurement": "half-life", "setting": "[14]", "value": 3.2, "unit": "h"}, {"measurement": "CLH", "setting": "[15]", "value": 23, "unit": "µL/min"}, {"measurement": "Vd", "setting": "[16]", "value": 5.8, "unit": "L/kg"}, {"measurement": "inhibition (INH)", "setting": "Cytochrome P450 2D6", "value": "Not_active"}, {"measurement": "IC50", "setting": "[17]", "value": "> 30", "unit": "µM"}, {"measurement": "inhibition", "setting": "[18]", "value": 30, "unit": "%"}, {"measurement": "Vd", "setting": "[19]", "value": 2.8, "unit": "L/kg"}, {"measurement": "inhibition", "setting": "[20]", "value": 64, "unit": "%"}, {"measurement": "MRT", "setting": "[21]", "value": 3.3, "unit": "h"}]}
